In article PMC9611727, “Optimization of a Novel Mandelamide-Derived Pyrrolopyrimidine Series of PERK Inhibitors” (Pharmaceutics, 2022):
In brackets after ≈: the same amount, converted by molar mass.

Legend:
[1] = Plasma protein binding (RED dialysis), dog; type: in vitro ADME; conditions: male, beagle, pH 7.4
Source text: (§1) Verapamil hydrochloride and tamoxifen were obtained from Sigma-Aldrich. […]
(§2) Pooled mixed gender human donor plasma, Sprague Dawley male rat plasma, CD-1 (ICR) male mouse plasma and male beagle dog plasma were obtained from Bioreclamation Inc. (Westbury, NY). Reusable Teflon base plate, RED Device inserts, and BupH Phosphate Buffered Saline packs (0.1 M sodium phosphate and 0.15 M sodium chloride when dissolved in 0.5 L water) were obtained from Thermo Scientific (Waltham, MA). Propranolol was obtained from Sigma-Aldrich (St. Louis, MO). All solvents were obtained from commercial sources and used without further purification.
(§3) Frozen plasma was thawed and the pH of plasma and BupH phosphate buffered saline was adjusted to 7.4 prior to dialysis. Into each well of a reusable Teflon 48-well base plate a RED insert was placed open end up. Ten microliters (10 µL) of the test compound (0.1 mM in acetonitrile/water, 1:1 v/v) was added to 990 µL of plasma to achieve 1 µM final concentration. The spiked plasma (200 µL) was added to the sample chamber, which is indicated by the red retainer ring (donor side). To the other side (receiver side), 350 µL of BupH phosphate buffered saline (pH 7.4) was added. A buffer-to-buffer assay was also performed to measure equilibrium across the membrane in the absence of plasma protein.
(§4) Propranolol was used as a positive control. All samples were prepared in triplicate. The RED device base plate was then sealed and placed in a shaking incubator set to maintain 37°C and 200 rpm for four hours.
(§5) After incubation, 100 µL of each sample was combined with an equal volume of either plasma or buffer, to create a similar matrix for all samples. Blank buffer was added to plasma samples, and vice versa. Samples from the incubation, along with the original compound-spiked plasma samples, were prepared for analysis in the same manner. Protein precipitation by addition of two parts of ice-cold acetonitrile to one part of reaction volume was carried out. To ensure complete protein precipitation samples were sealed and placed overnight at 4°C. The next morning samples were centrifuged at 3,600 rpm for 15 minutes. The supernatants (70 µL) were supplemented with an equal volume of internal standard solution (0.15 µM verapamil in water) and subjected to LC-MS/MS analysis.

[2] = Metabolic clearance in hepatocytes, human; type: in vitro ADME; conditions: male, pooled cryopreserved human hepatocytes (ten donors), read-out: Hepatocyte Clearance (t1/2 min) Human
Description: (§6) Metabolic Clearance in Hepatocytes
(§7) Testosterone was obtained from Cerilliant (Round Rock, TX). 7-Hydroxycoumarin was obtained from Sigma-Aldrich (St.
(§8) Louis, MO). Ten-donor male pooled cryopreserved human hepatocytes, cryopreserved male Sprague Dawley rat hepatocytes, cryopreserved male ICR/CD-1 mouse hepatocytes, cryopreserved male beagle dog hepatocytes, In VitroGro HI Medium (Incubation), and InVitroGro HT Medium (Thawing) were obtained from Bioreclamation IVT (Baltimore, MD). All solvents were obtained from commercial sources and used without further purification.Test compound was prepared as a 1 mM stock solution in DMSO. A 2 µM solution of test compound and testosterone was prepared (7 - hydroxycoumarin was prepared at 20 µM) in In VitroGro HI Medium (Incubation). These solutions were placed in a sterile incubator set to maintain 37°C, 5% CO2, and 98% humidity to pre-warm. Cryopreserved hepatocytes were prepared at a concentration of 2 x 10^6 living cells/mL in incubation media and placed in the incubator to pre-warn. The compound solutions and hepatocyte mixtures were then combined at a ratio of 1:1 (v:v). The final volume of the reaction mixture was 750 µL, containing 1 µM test compound and 1 x 10^6 cells/mL. The reaction mixture was placed in the incubator on a plate shaker. After 0, 15, 30, 60, 90, and 120 minutes of incubation, 100 µL of reaction mixtures were removed from the incubation plate and mixed with 150 µL of ice-cold acetonitrile in a designated well of a 96-well crash plate. The 96-well crash plate was placed on ice for 15 min, and samples were centrifuged (3,600 rpm, 10 min, 4 °C) to precipitate protein.
(§9) The supernatants were diluted 1:1 (v/v) with water containing tolbutamide, (internal standard for positive and negative modes, respectively) in a 96-well shallow injection plate. This plate was sealed for LC-MS analysis. All measurements

[3] = Metabolic clearance in hepatocytes, mouse; type: in vitro ADME; conditions: male, ICR/CD-1, cryopreserved mouse hepatocytes, read-out: Hepatocyte Clearance (t1/2 min) Mouse
Description: as §6, §7, §8, §9

[4] = Kinetic aqueous solubility in PBS pH 7.4; type: physicochemical; conditions: phosphate buffered saline (PBS), 25 °C, aqueous buffer, kinetic from dmso stock
Description: These promising compounds were evaluated in in vitro ADME assays (aqueous solubility, Caco-2 permeability, plasma protein binding, and hepatocyte stability) to determine their drug-like properties (Table 4).
Verapamil hydrochloride and tamoxifen were obtained from Sigma-Aldrich. All solvents were obtained from commercial sources and used without further purification. Hydrophilic PVDF 96-well filter plates ([…]), 2 mL 96-well assay block, and 96-well UV plates were purchased from Fisher Scientific.Test compound was prepared as a 10 mM stock solution in DMSO. Aqueous suspensions of test compound at 100 µM were prepared in assay buffers. The composition of phosphate buffered saline (PBS) is 0.1 M sodium phosphate, and 0.15 M sodium chloride, adjusted to pH 7.4. The suspensions were agitated at 200 rpm for 1 hour at 25 °C. The suspensions were transferred to a 0.45 µm hydrophilic PVDF 96-well filter plate mounted on a fresh 2 mL 96-well plate and were filtered by centrifugation at 3,000 rpm for 1 min. 150 µL of filtrates were transferred to 96-well UV plate for absorbance measurement. In order to determine the optimal wavelength for detection (λmax), the absorbance spectrum of the DMSO stock solution for each compound was recorded over a broad range of wavelengths (260–450 nm) using a UV/VIS plate reader (Molecular Devices Spectramax i3). To prepare calibration curves, a 1:1 serial dilution was performed on each compound starting at 100 µM to generate calibration solutions with concentrations ranging from […] to 100 µM. The UV absorbance of calibrants was measured at λmax for each compound. Concentration of each compound in the assay solution was calculated using the corresponding calibration curve. All assay measurements were performed in duplicate. […]

[5] = Plasma protein binding (RED dialysis), rat; type: in vitro ADME; conditions: male, Sprague Dawley, pH 7.4
Source text: as §1, §2, §3, §4, §5

[6] = Plasma protein binding (RED dialysis), human; type: in vitro ADME; conditions: both sexes, pooled human plasma, pH 7.4
Source text: as §1, §2, §3, §4, §5

| Structure (SMILES) | fraction unbound at 4 h, 1 µM [1] | half-life at 1 µM [2] [h] | half-life at 1 µM [3] [h] | solubility kinetic at 1 h [4] [µM] | fraction unbound at 4 h, 1 µM [5] | fraction unbound at 4 h, 1 µM [6] |
| --- | --- | --- | --- | --- | --- | --- |
| Cc1nc(N)c2c(-c3ccc(NC(=O)[C@H](O)c4cccc(F)c4)cc3C)cn(C)c2n1 [Compound 24] | 0.03 | 12.2 | 0.517 | 76 (≈ 31.9 µg/mL) | 0.009 | 0.008 |
| Cc1nc(N)c2c(-c3ccc(NC(=O)[C@H](O)c4cccc(C(F)(F)F)c4)cc3C)cn(C)c2n1 [Compound 26] | 0.005 | 3.23 | 1.97 | 19 (≈ 8.92 µg/mL) | 0.002 | 0.002 |
| Cc1nc(N)c2c(-c3ccc(NC(=O)[C@H](O)c4cccc(Cl)c4)cc3C)cn(C)c2n1 [Compound 28] | 0.017 | 13 | 1.03 | 35 (≈ 15.3 µg/mL) | 0.003 | 0.002 |
| Cc1nc(N)c2c(-c3ccc(NC(=O)[C@H](O)c4cc(F)cc(F)c4)cc3C)cn(C)c2n1 [Compound 38] | 0.016 | 14.9 | 13.4 | 19 (≈ 8.31 µg/mL) | 0.009 | 0.01 |
| Cc1nc(N)c2c(-c3ccc(NC(=O)[C@H](O)c4cc(F)cc(C(F)(F)F)c4)cc3C)cn(C)c2n1 [Compound 39] | < 0.001 | 4.62 | 5.33 | 10 (≈ 4.87 µg/mL) | 0.001 | 0.001 |
| Cc1nc(N)c2c(-c3ccc(NC(=O)[C@H](O)c4cccc(F)c4)c(F)c3F)cn(C)c2n1 [Compound 70, (R)-N-(4-(4-amino-2,7-dimethyl-7H-pyrrolo[2,3-d]pyrimidin-5-yl)-2,3-difluorophenyl)-2-(3-fluorophenyl)-2-hydroxyacetamide] | 0.006 | 6 | 0.75 | 66 (≈ 29.1 µg/mL) | 0.007 | 0.006 |

Next, values leading:

| fraction unbound at 4 h, 1 µM [1] | half-life at 1 µM [2] [h] | half-life at 1 µM [3] [h] | solubility kinetic at 1 h [4] [µM] | fraction unbound at 4 h, 1 µM [5] | fraction unbound at 4 h, 1 µM [6] | Structure (SMILES) |
| --- | --- | --- | --- | --- | --- | --- |
| 0.012 | 1.13 | 0.4 | 24 (≈ 10.4 µg/mL) | 0.005 | 0.004 | Cc1cc(F)cc([C@@H](O)C(=O)Nc2ccc(-c3cn(C)c4nc(C)nc(N)c34)c(C)c2)c1 [Compound 41] |
| 0.004 | 9.27 | 0.883 | 14 (≈ 6.16 µg/mL) | 0.004 | 0.001 | Cc1nc(N)c2c(-c3ccc(NC(=O)[C@H](O)c4cccc(Cl)c4)cc3F)cn(C)c2n1 [Compound 48] |
| 0.013 | 6.5 | 1.07 | 58 (≈ 25.4 µg/mL) | 0.011 | 0.004 | Cc1nc(N)c2c(-c3ccc(NC(=O)[C@H](O)c4cccc(F)c4)c(F)c3C)cn(C)c2n1 [Compound 65] |
| 0.018 | 5.97 | 2.78 | 61 (≈ 26.7 µg/mL) | 0.014 | 0.007 | Cc1nc(N)c2c(-c3cc(F)c(NC(=O)[C@H](O)c4cccc(F)c4)cc3C)cn(C)c2n1 [Compound 66] |
